From patent US9718785B2, “1,3-Disubstituted cyclopentane derivatives” (MERCK PATENT GMBH, priority 2013, dated 2017)

Target: T1, human recombinant full-length fatty acid synthase (FASN) (Homo sapiens, UniProt P49327)
T1 construct: 40 nM human recombinant full-length fatty acid synthase (produced in-house in SF9 cells); made in house; host or cells: SF9 insect cells
Test: Biochemical activity testing of human fatty acid synthase FASN (NADPH fluorescence intensity enzyme assay)
Conditions: at 3 μM
From the text: Biochemical Activity Testing of Human Fatty Acid Synthase FASN
Fatty acid synthase FASN is a multifunctional enzyme with seven catalytic activities thereby synthesising long chain fatty acids especially palmitoyl-CoA in the presence of co-factor NADPH starting from the substrates acetyl-CoA and malonyl-CoA. The reductive synthesis is realized by the oxidation of NADPH to NADP. Since NADPH has a high fluorescence intensity quantum yield compared to NADP with excitation at 340 nm and emission at 460 nm, the reaction can be monitored via the decrease in fluorescence intensity. The biochemical FASN activity testing was performed as 384 well two-time-point kinetic fluorescence intensity assay format in Greiner low volume medium binding 384-well black microtiter plates in a total assay volume of 8 μl and was used for high throughput screen. In each well 3 μl 40 nM human recombinant full-length fatty acid synthase (produced in-house in SF9 cells) were dispensed in the following assay buffer: 50 mM potassium phosphate buffer pH 7.0, 0.005% (w/v) BSA, 2 mM Glutathione, 0.02% Tween-20. Then 2 μl of 200 μM NADPH in assay buffer were added, followed by the addition of the test compounds in 10 dilution concentrations starting with 30 μM (final concentration) to get a final DMSO content of 1% (v/v). The mixture was incubated for at least 15 min at room temperature. After the pre-incubation the enzymatic reaction was started by the addition of 2 μl substrate solution (80 μM acetyl-CoA, 240 μM malonyl-CoA). A first fluorescence intensity measurement (time point one) was performed with an Envision multimode reader (Perkin Elmer LAS Germany GmbH) at excitation wavelength 340 nm (lamp mode) and emission wavelength 460 nm. The reaction was incubated for 30 minutes at room temperature. After this the fluorescence intensity was measured again in the Envision using the same parameters as described above (second time point measurement). The data were analysed by subtracting the first time point measurement value from the second time point measurement value (after the enzymatic reaction). The differences of the emission signals were determined. These reflect directly the conversion rate of NADPH. The full value used was the inhibitor-free reaction. A pharmacological zero value was used like GSK837149A (Sigma-Aldrich) in a final concentration of 5-10 μM. The inhibitory values (IC50) were determined using either the program Symyx Assay Explorer® or Condosseo® from GeneData.

T1 sequence (P49327 whole entry): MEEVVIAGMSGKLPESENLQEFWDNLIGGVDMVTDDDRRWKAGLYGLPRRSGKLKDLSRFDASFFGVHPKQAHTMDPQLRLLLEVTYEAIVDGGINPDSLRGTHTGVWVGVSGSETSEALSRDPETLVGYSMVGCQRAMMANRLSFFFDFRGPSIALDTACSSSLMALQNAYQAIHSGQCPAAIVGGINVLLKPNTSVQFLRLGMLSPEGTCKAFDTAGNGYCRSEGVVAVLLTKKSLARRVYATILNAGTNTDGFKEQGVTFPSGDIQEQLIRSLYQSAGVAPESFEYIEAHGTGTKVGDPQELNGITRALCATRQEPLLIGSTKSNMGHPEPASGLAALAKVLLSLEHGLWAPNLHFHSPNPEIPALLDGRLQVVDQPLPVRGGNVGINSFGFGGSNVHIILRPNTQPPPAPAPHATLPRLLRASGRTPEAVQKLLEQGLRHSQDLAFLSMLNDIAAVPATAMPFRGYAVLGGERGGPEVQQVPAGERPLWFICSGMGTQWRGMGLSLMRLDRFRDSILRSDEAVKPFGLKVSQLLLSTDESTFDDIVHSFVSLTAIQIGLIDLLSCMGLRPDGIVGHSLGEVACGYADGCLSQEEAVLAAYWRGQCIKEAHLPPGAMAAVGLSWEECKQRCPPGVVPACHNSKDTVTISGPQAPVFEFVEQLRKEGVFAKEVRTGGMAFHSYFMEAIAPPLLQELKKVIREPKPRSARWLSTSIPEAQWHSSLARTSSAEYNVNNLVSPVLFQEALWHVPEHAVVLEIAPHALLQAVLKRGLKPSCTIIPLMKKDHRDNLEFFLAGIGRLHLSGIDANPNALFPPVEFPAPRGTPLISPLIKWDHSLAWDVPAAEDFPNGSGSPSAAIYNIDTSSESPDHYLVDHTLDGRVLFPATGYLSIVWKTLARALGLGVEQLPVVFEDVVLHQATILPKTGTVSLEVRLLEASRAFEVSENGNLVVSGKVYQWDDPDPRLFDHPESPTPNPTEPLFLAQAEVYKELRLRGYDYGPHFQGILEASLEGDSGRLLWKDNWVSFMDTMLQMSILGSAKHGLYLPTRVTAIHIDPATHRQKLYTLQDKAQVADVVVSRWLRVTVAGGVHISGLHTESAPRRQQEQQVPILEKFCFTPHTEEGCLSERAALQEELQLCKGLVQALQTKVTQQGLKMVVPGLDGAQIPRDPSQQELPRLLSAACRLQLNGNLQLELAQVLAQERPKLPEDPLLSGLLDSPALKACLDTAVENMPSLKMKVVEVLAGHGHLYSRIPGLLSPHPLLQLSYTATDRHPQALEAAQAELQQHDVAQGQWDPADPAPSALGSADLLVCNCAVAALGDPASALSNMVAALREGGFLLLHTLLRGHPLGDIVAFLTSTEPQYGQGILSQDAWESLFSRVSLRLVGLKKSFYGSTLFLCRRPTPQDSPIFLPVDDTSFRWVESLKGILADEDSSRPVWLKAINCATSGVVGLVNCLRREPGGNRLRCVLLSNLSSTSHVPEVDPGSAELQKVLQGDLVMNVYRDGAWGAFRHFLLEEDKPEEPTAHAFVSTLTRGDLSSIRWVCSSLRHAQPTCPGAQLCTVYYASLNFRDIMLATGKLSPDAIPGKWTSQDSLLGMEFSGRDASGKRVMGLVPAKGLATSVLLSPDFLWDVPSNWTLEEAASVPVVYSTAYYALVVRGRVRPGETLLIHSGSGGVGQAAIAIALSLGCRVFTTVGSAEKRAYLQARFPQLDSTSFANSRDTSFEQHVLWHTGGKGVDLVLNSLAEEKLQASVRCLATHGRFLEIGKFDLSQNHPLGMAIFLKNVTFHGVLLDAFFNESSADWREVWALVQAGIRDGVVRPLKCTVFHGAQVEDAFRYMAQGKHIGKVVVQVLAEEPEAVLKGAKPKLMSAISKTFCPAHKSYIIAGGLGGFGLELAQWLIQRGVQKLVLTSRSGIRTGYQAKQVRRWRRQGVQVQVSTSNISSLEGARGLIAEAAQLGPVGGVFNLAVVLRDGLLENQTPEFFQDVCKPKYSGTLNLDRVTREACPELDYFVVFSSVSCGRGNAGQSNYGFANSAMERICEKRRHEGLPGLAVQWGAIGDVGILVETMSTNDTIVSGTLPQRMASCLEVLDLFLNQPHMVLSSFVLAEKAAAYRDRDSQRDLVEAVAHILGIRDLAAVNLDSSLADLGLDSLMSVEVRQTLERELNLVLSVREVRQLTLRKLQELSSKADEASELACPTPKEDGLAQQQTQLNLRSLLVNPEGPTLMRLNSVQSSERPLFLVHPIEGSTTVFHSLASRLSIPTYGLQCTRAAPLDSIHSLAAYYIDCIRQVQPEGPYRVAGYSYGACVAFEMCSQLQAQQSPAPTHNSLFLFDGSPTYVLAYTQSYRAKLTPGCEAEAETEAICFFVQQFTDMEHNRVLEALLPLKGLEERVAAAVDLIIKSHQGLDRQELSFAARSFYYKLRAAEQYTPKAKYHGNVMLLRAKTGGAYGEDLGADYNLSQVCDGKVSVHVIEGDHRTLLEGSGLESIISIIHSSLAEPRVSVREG

How did the “Inhibition of FASN (enzyme assay)” value turn out when `CC1(NC(=O)[C@H]2CC[C@@H](n3cncc3-c3ccc(-c4cnc5[nH]ccc5c4)cc3)C2)CC1` [Compound A5, (1S,3R)-3-{5-[4-(1H-pyrrolo[2,3-b]pyridin-5-yl)-phenyl]-imidazol-1-yl}-cyclopentanecarboxylic acid (1-methyl-cyclopropyl)-amide] was run?
The value was “Inhibition: −44%”.

Same assay, conditions: human recombinant FASN, enzyme assay

Which IC50 does the source give for `CCNC(=O)[C@H]1CC[C@@H](n2cncc2-c2ccc(-c3nc4ccccc4o3)cc2)C1` [Compound A1, (1S,3R)-3-[5-(4-benzooxazol-2-yl-phenyl)-imidazol-1-yl]-cyclopentanecarboxylic acid ethylamide] here?
The IC50 was < 300 nM.

For `CCNC(=O)[C@H]1CC[C@@H](n2cncc2-c2ccc(-c3ccccc3)cc2)C1` [Compound A2, (1S,3R)-3-(5-biphenyl-4-yl-imidazol-1-yl)-cyclopentanecarboxylic acid ethylamide], which IC50 is on record?
The IC50 was < 300 nM.

With `CCNC(=O)[C@H]1CC[C@@H](n2cncc2-c2ccc(-c3ccc(Cl)cc3)cc2)C1` [Compound A3, (1S,3R)-3-[5-(4′-Chloro-biphenyl-4-yl)-imidazol-1-yl]-cyclopentanecarboxylic acid ethylamide] as the compound, how does the IC50 read?
The IC50 was < 300 nM.

With `CC1(NC(=O)[C@H]2CC[C@@H](n3cncc3-c3ccc(-c4nc5ccccc5o4)cc3)C2)CC1` [Compound A4, (1S,3R)-3-[5-(4-benzoxazol-2-yl-phenyl)-imidazol-1-yl]-cyclopentanecarboxylic acid (1-methyl-cyclopropyl)-amide] as the compound, how does the IC50 read?
Its IC50 is < 300 nM.

For `CC1(NC(=O)[C@H]2CC[C@@H](n3cncc3-c3ccc(-c4ccc5ncsc5c4)cc3)C2)CC1` [Compound A6, (1S,3R)-3-[5-(4-benzothiazol-6-yl-phenyl)-imidazol-1-yl]-cyclopentanecarboxylic acid (1-methyl-cyclopropyl)-amide amide], which IC50 is on record?
The IC50 was < 300 nM.

With `CC1(NC(=O)[C@H]2CC[C@@H](n3cncc3-c3ccc(-c4ccc5cc[nH]c5c4)cc3)C2)CC1` [Compound A7, (1S,3R)-3-{5-[4-(1H-indol-6-yl)-phenyl]-imidazol-1-yl}-cyclopentanecarboxylic acid (1-methyl-cyclopropyl)-amide] as the compound, how does the IC50 read?
Its IC50 is < 300 nM.

How did the IC50 turn out when `CC1(NC(=O)[C@H]2CC[C@@H](n3cncc3-c3ccc(-c4cc5cc(F)ccc5[nH]4)cc3)C2)CC1` [Compound A8, (1S,3R)-3-{5-[4-(5-fluoro-1H-indol-2-yl)-phenyl]-imidazol-1-yl}-cyclopentanecarboxylic acid (1-methyl-cyclopropyl)-amide] was run?
Its IC50 is 300 to 3000 nM.

With `CC1(NC(=O)[C@H]2CC[C@@H](n3cncc3-c3ccc(-c4ccc5[nH]nnc5c4)cc3)C2)CC1` [Compound A9, (1S,3R)-3-{5-[4-(1H-benzotriazol-5-yl)-phenyl]-imidazol-1-yl}-cyclopentanecarboxylic acid (1-methyl-cyclopropyl)-amide] as the compound, how does the IC50 read?
The IC50 was < 300 nM.

For `CC1(NC(=O)[C@H]2CC[C@@H](n3cncc3-c3ccc(-c4ccc5[nH]ccc5c4)cc3)C2)CC1` [Compound A10, (1S,3R)-3-{5-[4-(1H-indol-5-yl)-phenyl]-imidazol-1-yl}-cyclopentanecarboxylic acid (1-methyl-cyclopropyl)-amide], which IC50 is on record?
The IC50 was < 300 nM.

With `CC1(NC(=O)[C@H]2CC[C@@H](n3cncc3-c3ccc(-c4cccc5[nH]ncc45)cc3)C2)CC1` [Compound A11, (1S,3R)-3-{5-[4-(1H-indazol-4-yl)-phenyl]-imidazol-1-yl}-cyclopentanecarboxylic acid (1-methyl-cyclopropyl)-amide] as the compound, how does the IC50 read?
Its IC50 is < 300 nM.

How did the IC50 turn out when `CC1(NC(=O)[C@H]2CC[C@@H](n3cncc3-c3ccc(-c4ccc(C#N)cc4)cc3)C2)CC1` [Compound A12, (1S,3R)-3-[5-(4′-cyano-biphenyl-4-yl)-imidazol-1-yl]-cyclopentanecarboxylic acid (1-methyl-cyclopropyl)-amide] was run?
The IC50 was 300 to 3000 nM.

Which IC50 does the source give for `CCNC(=O)[C@H]1CC[C@@H](n2nncc2-c2ccc(-c3nc4ccccc4o3)cc2)C1` [Compound A13, (1S,3R)-3-[5-(4-benzoxazol-2-yl-phenyl)-[1,2,3]triazol-1-yl]-cyclopentanecarboxylic acid ethylamide] here?
The IC50 was < 300 nM.

For `CCNC(=O)[C@H]1CC[C@@H](n2nncc2-c2ccc(-c3ccc(Cl)cc3)cc2)C1` [Compound A14, (1S,3R)-3-[5-(4′-chloro-biphenyl-4-yl)-[1,2,3]triazol-1-yl]-cyclopentanecarboxylic acid ethylamide], which IC50 is on record?
The IC50 was < 300 nM.

`CCNC(=O)[C@H]1CC[C@@H](n2nncc2-c2ccc(-c3ccc(C#N)cc3)cc2)C1` [Compound A15, (1S,3R)-3-[5-(4′-cyano-biphenyl-4-yl)-[1,2,3]triazol-1-yl]-cyclopentanecarboxylic acid ethylamide] was tested. Which IC50 did it give?
The IC50 was < 300 nM.

With `CCNC(=O)[C@H]1CC[C@@H](n2nncc2-c2ccc(-c3ccc4cc[nH]c4c3)cc2)C1` [Compound A16, (1S,3R)-3-{5-[4-(1H-indol-6-yl)-phenyl]-[1,2,3]triazol-1-yl}-cyclopentanecarboxylic acid ethylamide] as the compound, how does the IC50 read?
Its IC50 is < 300 nM.

For `CCC(=O)N[C@H]1CC[C@@H](n2cncc2-c2ccc(-c3nc4ccccc4o3)cc2)C1` [Compound A19, N-{(1S,3R)-3-[5-(4-benzoxazol-2-yl-phenyl)-imidazol-1-yl]-cyclopentyl}-propionamide], which IC50 is on record?
The IC50 was < 300 nM.

`CCC(=O)N[C@H]1CC[C@@H](n2cncc2-c2ccc(-c3nc4ccccc4s3)cc2)C1` [Compound A20, N-{(1S,3R)-3-[5-(4-benzothiazol-2-yl-phenyl)-imidazol-1-yl]-cyclopentyl}-propionamide] was tested. Which IC50 did it give?
The IC50 was < 300 nM.

`CCC(=O)N[C@H]1CC[C@@H](n2cncc2-c2ccc(-c3ccc(Cl)cc3)cc2)C1` [Compound A21, N-{(1S,3R)-3-[5-(4′-chloro-biphenyl-4-yl)-imidazol-1-yl]-cyclopentyl}-propionamide] was tested. Which IC50 did it give?
Its IC50 is < 300 nM.

`CCC(=O)N[C@H]1CC[C@@H](n2cncc2-c2ccc(-c3cccc4[nH]ncc34)cc2)C1` [Compound A22, N-((1S,3R)-3-{5-[4-(1H-indazol-4-yl)-phenyl]-imidazol-1-yl}-cyclopentyl)-propionamide] was tested. Which IC50 did it give?
Its IC50 is < 300 nM.

How did the IC50 turn out when `CC(=O)N[C@H]1CC[C@@H](n2nncc2-c2ccc(-c3nc4ccccc4o3)cc2)C1` [Compound A24, N-{(1S,3R)-3-[5-(4-benzoxazol-2-yl-phenyl)-[1,2,3]triazol-1-yl]-cyclopentyl}-acetamide] was run?
The IC50 was < 300 nM.

For `CCC(=O)N[C@H]1CC[C@@H](n2nncc2-c2ccc(-c3ccc(Cl)cc3)cc2)C1` [Compound A25, N-{(1S,3R)-3-[5-(4′-chloro-biphenyl-4-yl)-[1,2,3]triazol-1-yl]-cyclopentyl}-propionamide], which IC50 is on record?
Its IC50 is < 300 nM.

For `CCC(=O)N[C@H]1CC[C@@H](n2nncc2-c2ccc(-c3cccc4[nH]ncc34)cc2)C1` [Compound A26, N-((1S,3R)-3-{5-[4-(1H-indazol-4-yl)-phenyl]-[1,2,3]triazol-1-yl}-cyclopentyl)-propionamide], which IC50 is on record?
Its IC50 is < 300 nM.

`CCC(=O)N[C@H]1CC[C@@H](n2nncc2-c2ccc(-c3ccc4[nH]ccc4c3)cc2)C1` [Compound A27, N-((1S,3R)-3-{5-[4-(1H-indol-5-yl)-phenyl]-[1,2,3]triazol-1-yl}-cyclopentyl)-propionamide] was tested. Which IC50 did it give?
Its IC50 is < 300 nM.

Which IC50 does the source give for `CCC(=O)N[C@H]1CC[C@@H](n2nncc2-c2ccc(-c3nc4ccccc4s3)cc2)C1` [Compound A28, N-{(1S,3R)-3-[5-(4-benzothiazol-2-yl-phenyl)-[1,2,3]triazol-1-yl]-cyclopentyl}-propionamide] here?
The IC50 was < 300 nM.

How did the IC50 turn out when `CCNC(=O)[C@H]1CC[C@@H](n2cnnc2-c2ccc(-c3nc4ccccc4o3)cc2)C1` [Compound A29, (1S,3R)-3-[3-(4-benzoxazol-2-yl-phenyl)-[1,2,4]triazol-4-yl]-cyclopentanecarboxylic acid ethylamide] was run?
Its IC50 is < 300 nM.

`CCNC(=O)[C@H]1CC[C@@H](n2cnnc2-c2ccc(-c3ccc4cc[nH]c4c3)cc2)C1` [Compound A30, (1S,3R)-3-{3-[4-(1H-indol-6-yl)-phenyl]-[1,2,4]triazol-4-yl}-cyclopentanecarboxylic acid ethylamide] was tested. Which IC50 did it give?
Its IC50 is < 300 nM.

`CCNC(=O)[C@H]1CC[C@@H](n2cnnc2-c2ccc(-c3ccc(Cl)cc3)cc2)C1` [Compound A31, (1S,3R)-3-[3-(4′-chloro-biphenyl-4-yl)[1,2,4]triazol-4-yl]-cyclopentanecarboxylic acid ethylamide] was tested. Which IC50 did it give?
The IC50 was < 300 nM.

Which IC50 does the source give for `CCNC(=O)[C@H]1CC[C@@H](n2cnnc2-c2ccc(-c3ccc(C#N)cc3)cc2)C1` [Compound A32, (1S,3R)-3-[3-(4′-cyano-biphenyl-4-yl)-[1,2,4]triazol-4-yl]-cyclopentanecarboxylic acid ethylamide] here?
The IC50 was < 300 nM.
